Source: patent US20230114728A1 (Venatorx Pharmaceuticals, Inc., priority 2019, published 2023)
In brackets after ≈: the same amount, converted by molar mass.

Experiments:
[1] = test system: K. pneumoniae 848844 producing SHV-11 and KPC-2; experiment: Broth microdilution MIC in CAMHB; format: cell-based; details: Klebsiella pneumoniae, read-out: Minimum Inhibitory Concentration, K. pneumoniae 848844
Experimental: (§1) Example III: In Vitro Antibacterial Assays
(§2) To determine the ability of test compounds to inhibit the growth of bacterial strains, classic cell based broth microdilution minimum inhibitory concentration (MIC) assays were employed. MIC assays are performed according to CLSI methods except where otherwise noted (CLSI, 2018 and CLSI, 2019). The reference type strain E. coli ATCC 25922; the wild-type parent strain E. coli AG100; the hyper-permeable E. coli 901C and E. coli D22; and the E. coli AG100A strain lacking the acrAB efflux pump encoding genes were used to determine the ability of the PBP inhibitors to penetrate the outer membrane of gram-negative bacteria and inhibit bacterial growth. […] The P. aeruginosa ATCC 27853 and A. baumannii ATCC 19606, along with the hyper-permeable P. aeruginosa ATCC 35151 and an engineered efflux pump-compromised strain of P. aeruginosa (ΔmexAB-oprM) were used to determine the ability of PBP inhibitors to penetrate the outer membrane of P. aeruginosa and A. baumannii and assess antibacterial activity against these important gram-negative organisms.
(§3) Briefly, cryo-preserved bacterial cultures of challenge strains are streaked for isolation on appropriate agar medium, in this case cation-adjusted Mueller Hinton agar. Following incubation to allow growth of the colonies, plates are sealed with parafilm and stored refrigerated for up to two weeks. For preparation of assay inoculum and to ensure low variability, at least 5 colonies are picked from the agar plates with an inoculating loop and aseptically transferred to a culture tube containing 3 mL of cation-adjusted Mueller Hinton broth (CAMHB). The broth culture is grown for 3-5 hours at 37° C. with shaking at 200 rpm. Meanwhile, 2-fold serial dilutions of test compounds are conducted in a 96-well plate with a final volume of 75 μL per well at 2-fold the final desired concentration. After the dilution plates are set up the growing cultures are then diluted in a cuvette containing CAMHB and the optical density is measured at 600 nm. The inoculum is diluted such that 75 μL of this culture in CAMHB results in a starting bacterial concentration of 2-8×10^5 CFU/mL when added to the dilution plates. The plates are incubated for 16-20 hours for Enterobacteriaceae and Pseudomonas and 20-24 hours for Acinetobacter at 37° C. The MIC values are read visually as the lowest concentration well with no bacterial growth.

E. coli 901C = experiment: Broth microdilution MIC in CAMHB; format: cell-based; details: Escherichia coli; MHB; hyper-permeable E. coli 901C; read-out: Minimum Inhibitory Concentration, E. coli 901C
Experimental: as §1, §2, §3

A. baumannii ATCC 19606 = experiment: Broth microdilution MIC in CAMHB; format: cell-based; details: Acinetobacter baumannii, ATCC19606; MHB; read-out: Minimum Inhibitory Concentration, A. baumannii ATCC 19606
Experimental: as §1, §2, §3

E. coli AG100 = experiment: Broth microdilution MIC in CAMHB; format: cell-based; details: Escherichia coli; MHB; wild-type parent strain E. coli AG100; read-out: Minimum Inhibitory Concentration, E. coli AG100
Experimental: as §1, §2, §3

E. coli D22 = experiment: Broth microdilution MIC in CAMHB; format: cell-based; details: Escherichia coli; MHB; hyper-permeable E. coli D22; read-out: Minimum Inhibitory Concentration, E. coli D22
Experimental: as §1, §2, §3

[2] = test system: K. pneumoniae UMM producing SHV-5 and KPC-2; experiment: Broth microdilution MIC in CAMHB; format: cell-based; details: Klebsiella pneumoniae, read-out: Minimum Inhibitory Concentration, K. pneumoniae UMM
Experimental: as §1, §2, §3

[3] = test system: K. pneumoniae SI-117 producing VIM-1; experiment: Broth microdilution MIC in CAMHB; format: cell-based; details: Klebsiella pneumoniae, read-out: Minimum Inhibitory Concentration, K. pneumoniae SI-117
Experimental: as §1, §2, §3

P. aeruginosa ATCC 35151 = experiment: Broth microdilution MIC in CAMHB; format: cell-based; details: Pseudomonas aeruginosa, ATCC35151; MHB; hyper-permeable strain; read-out: Minimum Inhibitory Concentration, P. aeruginosa ATCC 35151
Experimental: as §1, §2, §3

P. aeruginosa ATCC 27853 = experiment: Broth microdilution MIC in CAMHB; format: cell-based; details: Pseudomonas aeruginosa, ATCC27853; MHB; read-out: Minimum Inhibitory Concentration, P. aeruginosa ATCC 27853
Experimental: as §1, §2, §3

E. coli ATCC 25922 = experiment: Broth microdilution MIC in CAMHB; format: cell-based; details: Escherichia coli, ATCC25922; MHB; E. coli ATCC 25922; read-out: Minimum Inhibitory Concentration, E. coli 25922
Experimental: as §1, §2, §3

E. coli AG100A = experiment: Broth microdilution MIC in CAMHB; format: cell-based; details: Escherichia coli, read-out: Minimum Inhibitory Concentration, E. coli AG100A
Experimental: as §1, §2, §3

[4] = test system: P. aeruginosa (ΔmexAB-oprM); experiment: Broth microdilution MIC in CAMHB; format: cell-based; details: Pseudomonas aeruginosa, read-out: Minimum Inhibitory Concentration, P. aeruginosa ΔmexAB-OprM
Experimental: as §1, §2, §3

E. coli K12 PBP3 = target: T1, E. coli K12 PBP3 (Escherichia coli, UniProt P0AD68); experiment: biochemical; format: binding
T1 construct: made in house
T1 sequence (P0AD68 1-577): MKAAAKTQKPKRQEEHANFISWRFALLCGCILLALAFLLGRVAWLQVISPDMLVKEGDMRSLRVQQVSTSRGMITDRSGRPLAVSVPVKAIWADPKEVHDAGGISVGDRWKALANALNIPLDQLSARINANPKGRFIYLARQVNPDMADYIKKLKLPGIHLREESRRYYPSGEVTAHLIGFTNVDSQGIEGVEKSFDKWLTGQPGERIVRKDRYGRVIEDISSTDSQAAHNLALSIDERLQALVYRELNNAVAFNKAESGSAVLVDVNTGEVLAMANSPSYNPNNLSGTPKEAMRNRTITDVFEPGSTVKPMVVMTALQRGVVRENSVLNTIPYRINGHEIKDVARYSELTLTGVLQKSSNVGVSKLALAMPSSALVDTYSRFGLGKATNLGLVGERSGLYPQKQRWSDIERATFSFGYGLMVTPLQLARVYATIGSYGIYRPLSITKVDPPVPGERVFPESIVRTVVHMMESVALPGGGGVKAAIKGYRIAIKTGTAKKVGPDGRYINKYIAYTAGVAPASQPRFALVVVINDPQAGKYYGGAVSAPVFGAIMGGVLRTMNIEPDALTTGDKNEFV
Excerpt: (§4) Example I: Experimental Method for Penicillin-Binding Protein Binding Assays with Bocillin-FL Via Fluorescence Polarization
(§5) To determine the ability of boronic acid-based test PBP inhibitors to bind Penicillin Binding Proteins (PBPs), Bocillin-FL (fluorescently-labeled penicillin V; ThermoFisher Scientific) was used in a fluorescence polarization (FP) competition binding assay to assess inhibitor binding to PBP2, PBP3 or PBP4 from Escherichia coli (K12), PBP3 from Pseudomonas aeruginosa (PA01), PBP1a, PBP2 and PBP3 from Acinetobacter baumannii (ATCC 19606), and PBP2 from Neiserria gonorrheae (FA19). PBPs were cloned and purified as described previously (E. coli PBPs, King, D. T, et al., ACS Infectious Diseases 2015, 1, 175-184; P. aeruginosa PBP3, Han et. al., PNAS 2010, 107 (51), 22002-22007; A. baumannii PBPs, Penwell et. al., Antimicrob. Agents Chemother. 2015, 59 (3), 1680-1689; N. gonorrhoeae PBP2, Singh et. al., J Biol. Chem. 2019, 294 (38), 14020-14032). To establish assay conditions for competition binding, enzyme titration/saturation binding experiments were initially performed. Bocillin-FL was prepared at 0.2 μM in a buffer comprised of 50 mM Hepes (pH 8.0), 300 mM NaCl and 5% (v/v) glycerol for reactions with E. coli, P. aeruginosa and N. gonorrhoeae PBPs, and 25 mM Tris (pH 8.0), 200 mM NaCl and 10% (v/v) glycerol and 0.005% (v/v) Tween 20 for reactions with A. baumannii PBPs. Saturation binding was performed by mixing 40 μl of PBP solutions ranging in concentrations from 0-24 μM with 40 μl of the 0.2 μM Bocillin-FL solution, in individual wells of a black 384-well microplate. FP was measured immediately upon mixing (Excitation, 490 nm; Emission, 520 nm; g-factor, 0.96), using a Cytation3 (BioTek) microplate reader and measured continuously for up to 120 minutes. […] The competition binding assay (80 μl final volume) was validated using beta-lactams and PBPs at final concentrations of: 1.5 μM, E. coli PBP3; 0.75 μM, P. aeruginosa PBP3; 1 μM A. baumannii PBP1a; 2.5 μM A. baumannii PBP2; 0.2 μM A. baumannii PBP3; and […] N. gonorrhoeae PBP2. Bocillin-FL was at 0.1 μM (0.05 μM with A. baumannii PBP1a) and beta-lactam concentrations ranged from 0-1000 μM. […] Bocillin-FL was added and the FP immediately measured for up to 60 minutes (90 minutes for E. coli PBP2). […] The beta-lactam potency was reported as the concentration of beta-lactam required to reduce the amount of PBP bound-Bocillin-FL by 50% (EC50). […] Binding assays for boronic acid PBP inhibitors were performed in an identical fashion for the respective PBPs

P. aeruginosa PBP3 = target: T2, P. aeruginosa PBP3 (Pseudomonas aeruginosa, UniProt G3XD46); experiment: Bocillin-FL fluorescence polarization competition binding assay, P. aeruginosa PBP3; details: fluorescence polarization competition binding assay using Bocillin-FL
T2 construct: made in house
T2 sequence (G3XD46 whole entry): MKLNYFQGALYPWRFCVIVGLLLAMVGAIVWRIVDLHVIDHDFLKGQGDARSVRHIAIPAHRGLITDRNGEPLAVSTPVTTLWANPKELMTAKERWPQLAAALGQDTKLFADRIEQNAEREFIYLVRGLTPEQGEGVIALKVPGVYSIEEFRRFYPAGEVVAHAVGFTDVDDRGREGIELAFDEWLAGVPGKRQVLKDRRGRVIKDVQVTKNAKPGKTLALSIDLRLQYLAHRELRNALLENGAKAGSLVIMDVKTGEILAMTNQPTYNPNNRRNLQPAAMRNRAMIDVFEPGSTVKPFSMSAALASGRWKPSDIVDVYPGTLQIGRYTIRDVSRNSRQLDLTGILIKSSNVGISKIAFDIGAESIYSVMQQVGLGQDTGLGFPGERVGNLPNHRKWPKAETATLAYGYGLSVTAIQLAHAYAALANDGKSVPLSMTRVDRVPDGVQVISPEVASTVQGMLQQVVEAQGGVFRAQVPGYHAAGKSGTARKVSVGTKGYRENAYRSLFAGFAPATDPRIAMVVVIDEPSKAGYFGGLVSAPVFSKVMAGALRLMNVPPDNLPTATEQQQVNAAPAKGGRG
Excerpt: as §4, §5

SMILES	MIC [1] [µg/mL]	MIC (E. coli 901C) [µg/mL]	MIC (A. baumannii ATCC 19606) [µg/mL]	MIC (E. coli AG100) [µg/mL]	MIC (E. coli D22) [µg/mL]	MIC [2] [µg/mL]	MIC [3] [µg/mL]	MIC (P. aeruginosa ATCC 35151) [µg/mL]	MIC (P. aeruginosa ATCC 27853) [µg/mL]	MIC (E. coli ATCC 25922) [µg/mL]	MIC (E. coli AG100A) [µg/mL]	MIC [4] [µg/mL]	EC50 (E. coli K12 PBP3) [µM]	P. aeruginosa PBP3 Potency (P. aeruginosa PBP3)
NCCN1CCCN(C(=O)N[C@@H](C(=O)N[C@H]2Cc3cccc(C(=O)O)c3OB2O)c2c(F)cc(O)cc2F)C1=O (single isomer, unassigned) [Example 230]	> 128	> 128	> 128	> 128	> 128	2 to 4 (≈ 3.56 to 7.13 µM)	32 to 64 (≈ 57 to 114 µM)	2 to 4 (≈ 3.56 to 7.13 µM)	> 128	> 128	> 128	32 to 64 (≈ 57 to 114 µM)	30 to 500	C (C represents a potency between 10 and 30 μM)
NCCN1CCN(C(=O)N[C@@H](C(=O)N[C@H]2Cc3cccc(C(=O)O)c3OB2O)c2c(Cl)cccc2Cl)C(=O)C1=O (single isomer, unassigned) [Example 224]	> 128	> 128	> 128	> 128	> 128	8 to 16 (≈ 13.5 to 27 µM)	> 128	32 to 64 (≈ 54 to 108 µM)	> 128	> 128	> 128	> 128		B (B represents a potency between 30 μM and 500 μM inclusive)
C[C@H]1CN(CCCN)C(=O)C(=O)N1C(=O)NC(C(=O)N[C@H]1Cc2cccc(C(=O)O)c2OB1O)c1ccc(O)c(F)c1F (stereo partly drawn) [Example 243, (3R)-3-(2-((S)-4-(3-aminopropyl)-6-methyl-2,3-dioxopiperazine-1-carboxamido)-2-(2,3-difluoro-4-hydroxyphenyl)acetamido)-2-hydroxy-3,4-dihydro-2H-benzo[e][1,2]oxaborinine-8-carboxylic acid]	32 to 64 (≈ 53 to 106 µM)	> 128	> 128	32 to 64 (≈ 53 to 106 µM)	32 to 64 (≈ 53 to 106 µM)	0.5 to 1 (≈ 0.829 to 1.66 µM)	2 to 4 (≈ 3.31 to 6.63 µM)	2 to 4 (≈ 3.31 to 6.63 µM)	> 128	32 to 64 (≈ 53 to 106 µM)	32 to 64 (≈ 53 to 106 µM)	8 to 16 (≈ 13.3 to 26.5 µM)		D (D represents a potency <10 μM)
